Results on one compound are retold here after PubChem BioAssay AID743028 (The Scripps Research Institute Molecular Screening Center, 2013).

The series is described as follows: mouse plasma pharmacokinetic parameters, late-stage follow-up, in vivo study for V1a-R antagonist project, LC-MS (AID 743028). Conditions: C57Bl6 mouse plasma PK, IV/PO; for Cmax: peak plasma concentration; for AUC last: plasma exposure; for Tmax: time to peak.

In general, half-life refers to the time in which the quantity being followed falls by half. A high value points to slow loss. As usually defined, the MRT inf is a mean duration of stay, worked out from the concentration-time curve. What is called Cmax is the peak of the concentration-time curve. The Tmax is the time at which the peak concentration occurs. What is called bioavailability is the share of a dose that reaches the circulation, judged against a reference dose that is usually intravenous. Higher therefore signals good availability. As for `O=C(C1CCN(c2ccc(Cl)cn2)CC1)N(CC1CC1)c1ccc(Cl)cc1`, under “IV dosing 1 mg/kg”, the half-life came out at 133 min, the Cmax is 19.5 µM, the AUC last came to 628 µM·min and the Tmax worked out at 4.8 min. The same compound came in with an MRT inf (IV dosing 1 mg/kg, mean residence time) of 99 min. For the same compound, the clearance (IV dosing 1 mg/kg, plasma clearance) worked out at 2.9 mL/min/kg. Moreover, the Vss (IV dosing 1 mg/kg, volume of distribution) amounted to 0.26 L/kg. For the setting “PO dosing 10 mg/kg”, the half-life came out at 173 min, the Cmax came to 3.08 µM, the AUC last is 628 µM·min and the Tmax amounted to 40 min. This compound also returned a bioavailability (PO dosing 10 mg/kg, oral bioavailability) of 6.54%. For the same compound, the apparent oral clearance (CL/F) (PO dosing 10 mg/kg, plasma clearance) turned out to be 35.1 mL/min/kg.
